From ChEMBL document CHEMBL1155287, “Discovery of a small molecule inhibitor through interference with the gp120-CD4 interaction” (Bioorg Med Chem Lett, 2009) come the findings set out here.

Bounds are passed on as bounds.

Data set [1] in a line: Inhibition of HIV1 JRFL gp120-mediated CHO cells fusion to HeLaP4 cells by HIV LTR-beta galactosidase reporter assay. It counts as cell-based. The following applies: Human immunodeficiency virus 1, JRFL.
A short description of data set [2]: Cytotoxicity against human HeLaP4 cells. Format: cell-based.
The nature of data set [3]: Lipophilicity, log D at pH 7.4. The following applies: buffer. It counts as physicochemical.
Data set [4] can be described thus: Clearance in rat at 1 mg/kg, iv and 1 mg/kg, po. Format: ADME, organism-based. The conditions noted are these: in vivo.
The nature of data set [5]: Volume of distribution in rat at 1 mg/kg, iv and 1 mg/kg, po. It counts as ADME, organism-based. The following applies: in vivo.
Data set [6] is described as follows: Plasma protein binding in rat at 1 mg/kg, iv and 1 mg/kg, po. It counts as ADME, organism-based. The following applies: read-out: PPB (converted).
Data set [7] in a line: Bioavailability in rat at 1 mg/kg. The following applies: in vivo. It counts as ADME, organism-based.
In data set [8] the test system is Human immunodeficiency virus 1. Kind of data set: Antiviral activity against Human immunodeficiency virus 1 NL4-3 assessed as inhibition of viral entry in HeLaP4 cells after 5 days by beta galactosidase reporter assay. It counts as functional, organism-based. The conditions noted are these: Human immunodeficiency virus 1, NL4-3, HeLaP4, 120 h. A general note: A reporter such as luciferase makes a cellular process visible.

A short description of data set [9]: Half life in rat at 1 mg/kg, iv and 1 mg/kg, po. It counts as ADME, organism-based. The conditions noted are these: in vivo.
A short description of data set [10]: in vitro. The following applies: human, liver microsomes. For orientation: Liver microsomes are vesicles of endoplasmic reticulum, rich in cytochrome P450 enzymes.
Data set [11] can be described thus: in vitro. The conditions noted are these: rat, liver microsomes.
For data set [12], the system named is Human immunodeficiency virus 1. Kind of data set: Antiviral activity against Human immunodeficiency virus 1 3B infected human PBMC cells by Phenosense assay. It counts as functional, organism-based.
Data set [13] relates to Human immunodeficiency virus 1. Kind of data set: Antiviral activity against Human immunodeficiency virus 1 BaL infected human PBMC cells by Phenosense assay. It counts as functional, organism-based.
Data set [14] deals with Human immunodeficiency virus 1. Kind of data set: Antiviral activity against Human immunodeficiency virus 1 BR92004 infected human PBMC cells by Phenosense assay. Format: functional, organism-based. The conditions noted are these: Human immunodeficiency virus 1, BR92004, PBMC.
In data set [15] the test system is Human immunodeficiency virus 1. Kind of data set: Antiviral activity against Human immunodeficiency virus 1 BR92023 infected human PBMC cells by Phenosense assay. The conditions noted are these: Human immunodeficiency virus 1, BR92023, PBMC. Format: functional, organism-based.

What is called IC50 is the concentration at which inhibition is half-maximal. For orientation: CC50 means the concentration giving 50% cytotoxicity. High values mean better tolerance by the cells, low ones harm at low concentration. What is called logD is lipophilicity at a set pH, counting ionised and neutral species. A lower logD goes with a more hydrophilic compound. What is called bioavailability is the share of a dose that reaches the circulation, judged against a reference dose that is usually intravenous. Read a high bioavailability as good availability. For orientation: half-life means the time in which the quantity being followed falls by half. High values mean slow loss, low ones fast loss. For orientation: microsomal CLint means the rate of metabolic loss divided by the concentration. Higher therefore signals faster metabolism.

`CC(Oc1cccc(Cl)c1)C(=O)N1CCN(C(=O)c2ccccc2)C[C@H]1C` (stereo not given in full) displayed a concentration for half-maximal inhibition (IC50) in data set [1] of 1000 nM. In data set [2], the cytotoxic concentration (CC50) is greater than 10000 nM.

Consider `CNC(=O)c1ccc(O[C@@H](C)C(=O)N2CCN(C(=O)c3ccccc3)C[C@H]2C)c(OC)c1`, for which the IC50 stood at 17 nM in [1] and 3 nM in data set [8]. The log distribution coefficient (logD) in data set [3] worked out at 1. The clearance in data set [4] was 75 mL/min/kg. The Vd in [5] turned out to be 4.3 L/kg. In addition, the fraction unbound in data set [6] is 0.81. The molecule further gave a bioavailability in [7] of 48%. The same molecule had a CC50 in data set [2] greater than 10000 nM. Also, the half-life in data set [9] is 0.7 h; in [11], greater than 2 h. Besides, the intrinsic metabolic clearance (microsomal CLint) in [10] is less than 8 µL/min/mg.

For `CNC(=O)c1ccc(O[C@H](C)C(=O)N2CCN(C(=O)c3ccccc3)C[C@H]2C)c(OC)c1`, the IC50 in [1] was greater than 2000 nM. The molecule further showed a half-maximal cytotoxic concentration (CC50) in data set [2] greater than 10000 nM.

The molecule `CCOc1cc(C(=O)NC)ccc1OC(C)C(=O)N1CCN(C(=O)c2ccccc2)C[C@H]1C` (mixture of isomers) gave an IC50 in data set [1] greater than 2000 nM. The molecule also had a cytotoxic concentration (CC50) in data set [2] greater than 10000 nM.

In [1], `CNC(=O)c1ccc(OC(C)C(=O)N2CCN(C(=O)c3ccccc3)C[C@H]2C)c(F)c1` (mixture of isomers) had an IC50 of 2000 nM. Also, the logD in [3] came out at 1.4. The molecule further returned a 50% cytotoxic concentration (CC50) in data set [2] greater than 10000 nM. Besides, the microsomal CLint in data set [10] was less than 8 µL/min/mg.

Regarding `CNC(=O)c1cc(OC)c(O[C@@H](C)C(=O)N2CCN(C(=O)c3ccccc3)C[C@H]2C)cn1` (mixture of isomers), the IC50 in [1] turned out to be 11 nM; in data set [8] it was 2 nM; in data set [12], 10 nM; in data set [13] it was 25 nM; in data set [14], 6 nM; in data set [15], 0.6 nM. Also, in data set [3], the logD came out at 0.7. In data set [5], this molecule showed a Vd of 1.5 L/kg. Also, the fraction unbound in data set [6] is 0.69. Moreover, in data set [7], the bioavailability turned out to be 65%. Besides, the CC50 in data set [2] is greater than 10000 nM. Also, the results for the half-life in data set [9] and in data set [11] were 1 h and greater than 2 h, respectively. For the same molecule, the intrinsic metabolic clearance (microsomal CLint) in data set [10] is less than 8 µL/min/mg.

In [1], `Cc1c(OC(C)C(=O)N2CCN(C(=O)c3ccccc3)C[C@H]2C)cccc1-c1ncno1` (mixture of isomers) came in with an IC50 of 75 nM. In data set [3], the logD was 2.1. Further, the half-maximal cytotoxic concentration (CC50) in data set [2] was greater than 10000 nM. The same molecule yielded a microsomal CLint in data set [10] of 141 µL/min/mg.

In data set [1], `CNC(=O)c1ccc(OC(C)C(=O)N2CCN(C(=O)c3ccccc3)C[C@H]2C)cc1` (mixture of isomers) registered an IC50 of 2600 nM. The molecule further gave a pH-dependent lipophilicity (logD) in data set [3] of 1.1. The same molecule showed a CC50 in [2] greater than 10000 nM. Also, the microsomal CLint in data set [10] is less than 8 µL/min/mg.

In data set [1], `CNC(=O)c1cccc(OC(C)C(=O)N2CCN(C(=O)c3ccccc3)C[C@H]2C)c1OC` (mixture of isomers) yielded an IC50 greater than 10000 nM. Further, in data set [3], the logD is 1. The molecule further yielded a CC50 in data set [2] greater than 10000 nM. This molecule also displayed a microsomal CLint in [10] of less than 8 µL/min/mg.

As to `CC(Oc1ccccc1C(=O)N(C)C)C(=O)N1CCN(C(=O)c2ccccc2)C[C@H]1C` (mixture of isomers), in data set [1], the IC50 was greater than 25000 nM. In data set [3], the pH-dependent lipophilicity (logD) was determined as 1.1. Further, the 50% cytotoxic concentration (CC50) in data set [2] was greater than 10000 nM. This molecule showed a microsomal CLint in data set [10] of 31 µL/min/mg.

Molecule `CNC(=O)c1cccc(OC(C)C(=O)N2CCN(C(=O)c3ccccc3)C[C@H]2C)c1` (mixture of isomers) returned an IC50 in data set [1] of 1400 nM. For the same molecule, in data set [3], the pH-dependent lipophilicity (logD) amounted to 1.3. This molecule came in with a cytotoxic concentration (CC50) in data set [2] greater than 10000 nM. This molecule gave a microsomal CLint in data set [10] of less than 8 µL/min/mg.

In [1], `CNC(=O)c1ccccc1OC(C)C(=O)N1CCN(C(=O)c2ccccc2)C[C@H]1C` (mixture of isomers) yielded an IC50 greater than 25000 nM. The same molecule displayed a logD in data set [3] of 1.5. Further, in data set [2], the half-maximal cytotoxic concentration (CC50) was greater than 10000 nM. For the same molecule, in [10], the microsomal CLint turned out to be 23 µL/min/mg.

`CNC(=O)c1ccc(OC(C)C(=O)N2CCN(C(=O)c3ccccc3)C[C@H]2C)cc1C` (mixture of isomers) came in with an IC50 in data set [1] of 1000 nM. In [3], this molecule returned a logD of 1.1. Besides, the CC50 in data set [2] is greater than 10000 nM. The same molecule returned an intrinsic metabolic clearance (microsomal CLint) in data set [10] of less than 8 µL/min/mg.

Molecule `CNC(=O)c1ccc(O[C@@H](C)C(=O)N2CCN(C(=O)c3ccccc3)C[C@H]2C)c(OC)n1` (mixture of isomers) displayed an IC50 in data set [1] of 257 nM. In [2], this molecule returned a half-maximal cytotoxic concentration (CC50) greater than 10000 nM.

Turning to `CC(Oc1ccc(C(=O)N(C)C)cc1)C(=O)N1CCN(C(=O)c2ccccc2)C[C@H]1C` (mixture of isomers), the IC50 in data set [1] is greater than 25000 nM. Besides, the pH-dependent lipophilicity (logD) in data set [3] was found to be 0.9. This molecule also showed a CC50 in data set [2] greater than 10000 nM. Also, in data set [10], the microsomal CLint was less than 8 µL/min/mg.

As to `Cc1ccc(OC(C)C(=O)N2CCN(C(=O)c3ccccc3)C[C@H]2C)cc1C` (mixture of isomers), inhibition in data set [1] was half-maximal at 100 nM (IC50). Further, the 50% cytotoxic concentration (CC50) in [2] is greater than 10000 nM. The molecule also returned a microsomal CLint in data set [10] of 158 µL/min/mg.

For `CNC(=O)c1ccc(OC(C)C(=O)N2CCN(C(=O)c3ccccc3)C[C@H]2C)c(C)c1` (mixture of isomers), the IC50 in [1] is 2900 nM. For the same molecule, the log distribution coefficient (logD) in data set [3] came to 1.8. The molecule also returned a CC50 in [2] greater than 10000 nM. This molecule yielded a microsomal CLint in data set [10] of less than 8 µL/min/mg.

The molecule `CNC(=O)c1ccc(OC(C)C(=O)N2CCN(C(=O)c3ccccc3)C[C@H]2C)cc1OC` (mixture of isomers) yielded an IC50 in [1] of 2700 nM. Further, in data set [2], the CC50 is greater than 10000 nM.

For `CC(Oc1cccc(-c2ccn[nH]2)c1)C(=O)N1CCN(C(=O)c2ccccc2)C[C@H]1C` (mixture of isomers), inhibition in [1] was half-maximal at 35 nM (IC50). This molecule came in with a logD in data set [3] of 2.3. The cytotoxic concentration (CC50) in data set [2] is greater than 10000 nM. In [10], this molecule yielded an intrinsic metabolic clearance (microsomal CLint) of 61 µL/min/mg.

For the molecule `CNC(=O)c1cccc(OC(C)C(=O)N2CCN(C(=O)c3ccccc3)C[C@H]2C)c1C` (mixture of isomers), in [1], the IC50 was 12000 nM. In addition, in [3], the log distribution coefficient (logD) turned out to be 1.2. The cytotoxic concentration (CC50) in [2] was greater than 10000 nM. For the same molecule, the microsomal CLint in data set [10] was less than 8 µL/min/mg.

As for `CC(Oc1cccc(C(=O)N(C)C)c1)C(=O)N1CCN(C(=O)c2ccccc2)C[C@H]1C` (mixture of isomers), the IC50 in data set [1] was greater than 25000 nM. Moreover, the pH-dependent lipophilicity (logD) in data set [3] is 1. The molecule also registered a CC50 in [2] greater than 10000 nM. In addition, the microsomal CLint in data set [10] was determined as 12 µL/min/mg.
